Reference: patent publication US20050181516A1, “Bioequivalence determination using expression profiling” (priority 2002, published 2005)

How the values were obtained:
[1] = tested on: atopic dermatitis or psoriasis; conditions: topical formulation; cited from earlier work
[2] = tested on: reperfusion after ischemia in the brain; conditions: in vivo; cited from earlier work
[3] = tested on: psoriasis; experiment: 4 weeks clinical study of oral ASM981 in psoriatic patients; assay type: in vivo, human; conditions: 8 ASM981-treated patients, oral 60 mg/day (30 mg b.i.d.)
Protocol: A clinical study was initiated with a standardized oral formulation of ASM981 (pimecrolimus) to treat psoriatic patients. The purpose of this study was both to investigate the nature of the alteration in gene expression profiles caused by the administration of a standardised oral formulation of pimecrolimus and to produce the necessary data to allow the bioequivalence of other pharmaceutically equivalent oral formulations of pimecrolimus to be tested. The dose used was 60 mg/day, given as 30 mg twice a day (b.i.d.). To make this dose the […] tablets were cut in half using a special cutter (Tablettenteiler NR.96) so as to obtain 30 mg of ASM981 or a matched amount of placebo. ASM981 was evaluated as treatment for psoriasis using an oral dose of 60 mg (30 mg b.i.d) during a 4 weeks clinical study. The oral formulation used was a highly standardized oral dosage form that could be produced in large amounts and with a highly uniform composition, this was oral formulation A. The cohort included 10 patients; 8 received oral formulation A and 2 received a placebo. Blood samples were collected before the first administration to establish the gene expression baseline and on days 13 or 14 after treatment with ASM981 or placebo and submitted to gene expression analysis in order to gain insights into the mechanisms of action of the compound.

CC[C@@H]1/C=C(\C)C[C@H](C)C[C@H](OC)[C@H]2O[C@@](O)(C(=O)C(=O)N3CCCC[C@H]3C(=O)O[C@H](/C(C)=C/[C@@H]3CC[C@H](Cl)[C@H](OC)C3)[C@H](C)[C@@H](O)CC1=O)[C@H](C)C[C@@H]2OC [ASM981, 33-Epichloro-33-desoxy-ascomycin]
outcome of clinical trials in atopic dermatitis or psoriasis [1]: clinical regression | anti-inflammatory properties in reperfusion after ischemia in the brain [2]: successfully tested | psoriasis (clinical data) [3]: reduction of psoriasis
